“Also recorded” adds a separate entry of the source.
Assays:
[1] = tested on: syngeneic lung cancer (TC1) cells; assay: Lung cancer model in mice (TC1, IV inoculation); assay type: in vivo, mouse; settings: IV administration
[2] = tested on: mycobacterium tuberculosis, Pseudomonas aeruginosa; settings: in vivo; cited from earlier work
mouse spleen cells = settings: in vitro stimulation; cited from earlier work
[3] = tested on: syngeneic breast cancer (4T1); assay: Breast cancer model in mice (4T1, SubQ inoculation); assay type: in vivo, mouse; settings: mice bearing breast cancer
C57BL/6 mice = assay: Expansion of NKT subsets in spleens of C57BL/6 mice; assay type: in vivo; settings: C57BL/6 Wt, 72 h post IV injection, 0.1 μg per mouse
tumor metastasis = settings: mice; cited from earlier work
Sphingomonas capsulata = assay: Antibacterial efficacy in Sphingomonas capsulata infected mice; assay type: in vivo, mouse
From the text: Sphingomonas capsulata is a common environmental bacterial strain that is found in many places such as the air and water. It can be easily identified on nutrient agar plates because of its yellow colony color. […] Since the antibacterial activities of glycolipid antigens are mediated through the activation of NKT cells by glycolipid bound-CD1-d molecules, evaluation of the antibacterial efficacies using the disease model of Sphingomonas capsulata infection will focus on the impact of the NKT mediated pathway that is activated by glycolipid bindings. Six to eight week old female C57BL/6 mice were injected IP with Sphingomonas capsulate cells. […] Twenty-four hours after bacterial infection, livers were removed from mice and homogenized. Colony formation units (CFU) of Sphingomonas capsulate in liver homogenates were determined by plating diluted samples on nutrient plates. Colonies were counted after incubation for 48 hours at 37° C. […] To confirm the antibacterial efficacies of these α-GalCer analogs, another study was conducted to repeat the study by treating infected mice with 50 μg/kg in the same disease model. […] Six to eight week old female C57BL/6 mice were injected IP with 5×10^8 Sphingomonas capsulate cells. Mice were grouped into treatment and control groups with 4-6 mice per group. Four hours after the infection, mice in the treatment group were injected IP with testing α-GalCer analogs at 50 or 100 μg/kg, and the control group mice were injected with same volumes of PBS. Twenty-four hours after bacterial infection, mice from all groups were sacrificed. Livers were removed from mice and homogenized in 0.9% NaCl, 0.02% Tween 80 using tissue homogenizers. Colony formation units (CFU) of Sphingomonas capsulate in liver homogenates were determined by plating diluted samples on nutrient plates. Colonies were counted after incubation for 48 hours at 37° C.

[4] = tested on: human naïve NKTs (CD161^+CD3^+); assay: Cytokine/chemokine secretion by human naïve CD161+CD3+ NKTs co-cultured with autologous immature CD14+ DCs; assay type: cell-based; settings: normalized to DMSO control
BALB/c mice [5] = assay: Mouse serum cytokines/chemokines after IV, SubQ or IM injection; assay type: in vivo; settings: IV route
[6] = assay type: in vivo, mouse; settings: two weeks after the third vaccination
Description: BALB/c mice were injected IM with globo H-DT/α-GalCer or globo H-DT/α-GalCer analogs three times at two weeks interval. Sera was collected two weeks after the third vaccination and tested for IgG and IgM anti-globo H-specific antibody at 1:480 and 1:240 dilution, respectively, using a glycan microarray.

advanced cancers = settings: cited from earlier work
[7] = tested on: H5 of avian influenza viruses (pHA); assay type: in vivo, mouse
tetanus toxoid (TT) = settings: mouse, in vivo
naïve CD161^+/CD3^+ NKTs = assay: Human NKT TCR activation (phosphoproteins), glycolipid presented by HeLa, HeLa-CD1d or iDCs, 10 μg/ml; assay type: cell-based; settings: 10 μg/ml
[8] = tested on: FLU-A virus serotype H1N1 (WSN); assay: Cytopathetic effect / virus titer in MDCK cells infected with H1N1 (WSN); assay type: cell-based; settings: pretreated at 10 μg/ml for four hours; 10TCID50; 48 hours post-infection
Description: FIG. 60(A-B) show the cytopathetic effect (CPE) of Madin-Darby canine kidney (MDCK) cells in vitro. MDCK cells were pretreated with vehicle, α-GalCer or one of the α-GalCer analogs C13, C14 or C16 at 10 μg/ml for four hours, followed by infection with FLU-A virus serotype H1N1 (WSN) at 10TCID50.
BALB/c mice were treated via intranasal route with control, α-GalCer (C1) or the α-GalCer analogs C13, C14 or C16 at one hour prior to virus challenge with H1N1 (WSN). […] In general, certain α-GalCer analogs may exert direct anti-viral effects, or act indirectly via immune stimulation. […] MDCK cells were pretreated with vehicle, α-GalCer or one of the α-GalCer analogs C13, C14 or C16 at 10 μg/ml for four hours, followed by infection with FLU-A virus serotype H1N1 (WSN) at 10TCID50.

Klebsiella pneumoniae = assay: Antibacterial efficacy in K. pneumoniae infected mice; assay type: in vivo, mouse; settings: 100 μg/kg twice at 4-hour and 8-hour after infection
Description: K. pneumoniae is a Gram negative bacterium that causes liver abscess and is becoming a serious disease in Taiwan among diabetic patients. […] BALB/cByl female mice were administered a single dose of live K. pneumoniae by oral gavage. […] Twenty four hours after infection, both the liver and lungs were collected from each mouse, and homogenized. Bacterial counts were determined similarly as described above. BALB/c-Byl female mice (ten mice per group) were administered a single dose (10^6 CFU) of live-K. pneumoniae by oral gavage. Mice in the treatment groups were injected with testing α-GalCer analogs at 100 μg/kg twice at 4-hour and 8-hour after bacterial infection. Mice in the control group were injected with PBS at 4- and 8-hour. Twenty four hours after infection, all mice were sacrificed. Both livers and lungs were collected from each mouse, and homogenized. Bacterial counts were determined similarly as described above.

BALB/c mice [9] = assay: Expansion/activation of mouse splenocyte subpopulations 72 h after injection; assay type: in vivo

CCCCCCCCCCCCCCCCCCCCCCCCCC(=O)N[C@@H](CO[C@H]1O[C@H](CO)[C@H](O)[C@H](O)[C@H]1O)[C@H](O)[C@H](O)CCCCCCCCCCCCCC [C1, α-Galactosyl ceramide, reference compound]
anti-cancer efficacy compared with C1 [1]: significantly greater anti-cancer efficacy than C1 | antibacterial activities [2]: amelioration of mycobacterium tuberculosis infections, clearance of lung infection by Pseudomonas aeruginosa | NKT proliferation and cytokine production (mouse spleen cells): proliferation of NKTs and production of both IFN-[…] and IL-4 | effect of route of administration (SubQ vs IV) on anti-tumor efficacy [3]: more effective than IV delivery in prolonging the survival of mice bearing breast cancer; also recorded: statistically better efficacy with SubQ delivery over IV route | total number of NKTs and its two subtypes NKT1 and NKT2 (C57BL/6 mice): increase of total number of NKTs | tumor metastasis (tumor metastasis): suppress tumor metastasis to liver, lung and lymph nodes | difference in the values of the CFU per gram liver among efficacious groups (Sphingomonas capsulata; 50 μg/kg): not statistically significant | CFU numbers in liver (Sphingomonas capsulata; 100 μg/kg IP, 24 hour after bacterial infection): significantly lower than the control group | IFN/IL-4 ratio (TH1/TH2 bias) [4]: more TH2-biased | IFN-γ/IL-4 ratio (TH1/TH2 bias) (BALB/c mice [5]; 2 hours, compared with C1): less TH2 responses than C1 | serum level of IFN-γ (BALB/c mice [5]; over 72 hours): highest level of IFN-γ when given IV | anti-globo H IgM antibody ([6]; 1:240 dilution): not in C1 treated group | anti-globo H IgG antibody ([6]; 1:480 dilution): elicited significant IgG antibody production | toxicity (advanced cancers; human, in vivo): without any toxicity | clinical anti-tumor outcome (advanced cancers; α-GalCer or α-GalCer-loaded iDCs, phase I): no durable tumor regression, stable disease was noted in several patients | adjuvant activities in enhancing the anti-HAc antibody titer ([7]; 0.2 μg pHAc): better adjuvant activities than the others in enhancing the antibody titer | anti-H5 responses ([7]; 5-45 μg H5 DNA vaccine, three weeks after first immunization): enhanced by α-GalCer at 5-30 μg H5 DNA, but reached a plateau at 45 μg | adjuvant effect on anti-H5 titers ([7]; H5 DNA dose 0.2-5 μg, two weeks after second immunization): evident for all low dosages tested | anti-HA-specific IgG antibody ([7]; three weeks after one dose immunization): enhanced | antibody production compared with Alum (tetanus toxoid (TT)): significantly greater antibody production than Alum | antibody response relative to conventional vaccine (tetanus toxoid (TT)): ~2 fold | level of antibody after delayed boost compared with TT+Alum (tetanus toxoid (TT)): twice as high as those given TT+Alum | intracellular phospho-CD3ε (naïve CD161^+/CD3^+ NKTs; presented by DCs): 10.8 folds | intracellular phospho-CD3ε (naïve CD161^+/CD3^+ NKTs; presented by HeLa-CD1d cells): 7.3 folds of control | phospho-ERK1/2 (naïve CD161^+/CD3^+ NKTs; with DCs): 30 folds | phospho-ERK1/2 (naïve CD161^+/CD3^+ NKTs; with HeLa-CD1d cells): 6.6 folds increase | entry/replication of H1N1 virus (virus titer) [8]: slight inhibition of the entry/replication of H1N1 virus in vitro | bacterial loads in mouse lung and liver (Klebsiella pneumoniae): significantly reduce the bacterial loads in mouse lung and liver | B cell expansion (BALB/c mice [9]; FIGS. 26E, 28E and 30E): more active than C1 | CD8^+ T cell expansion/activation (BALB/c mice [9]; FIGS. 26F, 28F and 30F): more active than C1 | B cell expansion/activation (BALB/c mice [9]; SubQ route): significant activities | CD4^+ T cells (BALB/c mice [9]; SubQ route): most effective; also recorded: more active over control

— patent publication US20080260774A1, “Alpha-galactosyl ceramide analogs and their use as immunotherapies” (priority 2007, published 2008)
